Data set [1] can be described thus: in vitro. The settings on record: dog, MDCK.
Data set [2] is described as follows: in vivo. The conditions noted are these: rat, po, 1 mg/kg.
Data set [3] can be described thus: in vitro. The conditions noted are these: pig, LLC-PK1.
A short description of data set [4]: in vivo. The conditions noted are these: rat, plasma, iv, 0.5 mg/kg.

Consider eight compounds from ChEMBL document CHEMBL3588771, “Discovery of 5-Amino-N-(1H-pyrazol-4-yl)pyrazolo[1,5-a]pyrimidine-3-carboxamide Inhibitors of IRAK4” (ACS Med Chem Lett, 2015).

Molecules are shown by their SMILES.

In general, Papp refers to a coefficient for how fast a substance crosses the barrier. Low readings indicate poor permeation, high ones ready permeation. As to `Cn1cc(NC(=O)c2cnn3ccc(N[C@H]4CCCC[C@H]4N)nc23)c(C(N)=O)n1`, in “in vitro [1]”, the Papp is < 2 ×10⁻⁶ cm/s.
A word on the bioavailability: it is the share of a dose that reaches the circulation, judged against a reference dose that is usually intravenous. A higher bioavailability goes with much systemic uptake. For orientation: clearance means the rate of elimination divided by the concentration. Read a high clearance as a high capacity for elimination. In “in vivo [2]”, `Cn1cc(NC(=O)c2cnn3ccc(N[C@@H]4CCCC[C@@H]4N)nc23)c(C(N)=O)n1` returned a bioavailability of 0%. The same compound displayed a Papp in “in vitro [3]” of 2 ×10⁻⁶ cm/s. The compound further returned a clearance in “in vivo [4]” of 56 mL/min/kg.
The compound `Cn1cc(NC(=O)c2cnn3ccc(N[C@@H]4CCCC[C@@H]4N)nc23)c(C#N)n1` gave a Papp in the data set “in vitro [1]” of 17 ×10⁻⁶ cm/s.
For `Cn1cc(NC(=O)c2cnn3ccc(N[C@@H]4CCCC[C@@H]4N)nc23)c(C(F)(F)F)n1`, in “in vivo [2]”, the bioavailability was 5%. In the data set “in vitro [1]”, this compound came in with a Papp of 16 ×10⁻⁶ cm/s. In “in vivo [4]”, this compound came in with a clearance of 98 mL/min/kg.
Take `Cn1cc(NC(=O)c2cnn3ccc(N[C@@H]4CCCC[C@@H]4N)nc23)c(C(F)F)n1`: the Papp in the data set “in vitro [1]” is 13 ×10⁻⁶ cm/s.
In turn, `Cn1cc(NC(=O)c2cnn3ccc(N[C@@H]4CCCC(F)(F)[C@@H]4N)nc23)c(C(F)F)n1` showed a bioavailability in the data set “in vivo [2]” of 46%. In “in vitro [1]”, the apparent permeability coefficient (Papp) was 29 ×10⁻⁶ cm/s. Further, in “in vivo [4]”, the clearance worked out at 29 mL/min/kg.
`Cn1cc(NC(=O)c2cnn3ccc(N[C@@H]4CCC(F)(F)C[C@@H]4N)nc23)c(C(F)(F)F)n1` displayed a Papp in the data set “in vitro [1]” of 26 ×10⁻⁶ cm/s.
Still for that read-out and setting: the same measure for `Cn1cc(NC(=O)c2cnn3ccc(N4CC[C@H](F)[C@@H](N)C4)nc23)c(C(F)(F)F)n1`: 28 ×10⁻⁶ cm/s.
